Experimental data reported in patent US5679695A, “Aryl and heteroaryl compounds having anti-retrovirus activity” (The University of Connecticut, priority 1995, dated 1997).
Where “and” joins values, the source holds several entries; their conditions need not be identical. Equal entries are not always repeated. Where two headings read alike, the source gives them in different places.

Tested on: HIV-1
Assay: microbe, parasite or virus in culture
Format: cell-based
Conditions: for viability at 17.9 µM: 1.79 × 10^-5 Molar
Description: Another assay for testing the efficacy of the compounds is the procedure* used in the National Cancer Institute's test for agents active against Human Immunodeficiency Virus (HIV). It is designed to detect agents acting at any stage of the virus reproductive cycle. The assay basically involves the killing of T4 lymphocytes by HIV. Small amounts of HIV are added to cells, and a complete cycle of virus reproduction is necessary to obtain the required cell killing. Agents that interact with virions, cells, or virus gene-products to interfere with viral activities will protect cells from cytolysis. The system is automated in several features to accommodate large numbers of candidate agents and is generally designed to detect anti-HIV activity. However, compounds that degenerate, or are rapidly metabolized in the culture conditions may not show activity in this screen. All tests are compared with at least one positive (e.g., AZT-treated) control done at the same time under identical conditions.
* Weislow. O. W., Kiser, R., Fine, D., Bader, J., Shoemaker, R. H., Boyd, M. R.: New soluble-formazan assay for HIV-1 cytopathic effects: application to high-flux screening of synthetic and natural products for AIDS-antiviral activity. J. Natl. Cancer Inst. 81:577-586, 1989.
1. The Candidate agent is dissolved in dimethyl sulfoxide (unless otherwise instructed) then diluted 1:100 in cell culture medium before preparing serial half-log10 dilutions. T4 lymphocytes (CEM cell line) are added and after a brief interval HIV-1 added, resulting in a 1:200 final dilution of the compound. Uninfected cells with the compound serve as a toxicity control, and infected and uninfected cells without compound serve as basic controls.
2. Cultures are incubated at 37° in a 5% carbon dioxide atmosphere for 6 days.
3. The tetrazolium salt, XTT, is added to all wells, and cultures are incubated to allow formazan color development by viable cells.
4. Individual wells are analyzed spectrophotometrically to quantitate formazan production, and in addition are viewed microscopically for detection of viable cells and confirmation of protective activity.
5. Drug-treated virus-infected cells are compared with drug-treated noninfected cells and with other appropriate controls (untreated infected and untreated noninfected: cells, drug-containing wells without cells, etc.) on the same plate.
6. Data are reviewed in comparison with other tests done at the same time and a determination about activity is made.

With `O=[N+]([O-])c1ccccc1S(=O)(=O)c1ccccc1` [Compound 1, 1-Nitro-2-(phenylsulfonyl)benzene] the Conclusion (CEM-V) was “ACTIVE”, the Infected culture response (CEM-V, 1.79 × 10^-6 Molar, 1.79 µM) was 9.3% and the Infected culture response (CEM-V, 1.79 × 10^-7 Molar, 0.179 µM) was 8.7%. For the same compound, the Infected culture response (CEM-V, 1.89 × 10^-4 Molar, 189 µM) was 87.3%, the Infected culture response (CEM-V, 1.89 × 10^-5 Molar, 18.9 µM) was 110.5% and the Infected culture response (CEM-V, 1.89 × 10^-6 Molar, 1.89 µM) was 11.4%. It also gave an Infected culture response (CEM-V, 1.90 × 10^-7 Molar, 0.19 µM) of 12.1%, an Infected culture response (CEM-V, 5.66 × 10^-6 Molar, 5.66 µM) of 36.6% and an Infected culture response (CEM-V, 5.67 × 10^-7 Molar, 0.567 µM) of 8.3%. For the same compound, the Infected culture response (CEM-V, 5.68 × 10^-8 Molar, 0.0568 µM) was 9.4%, the Infected culture response (CEM-V, 5.98 × 10^-5 Molar, 59.8 µM) was 95.2% and the Infected culture response (CEM-V, 5.99 × 10^-6 Molar, 5.99 µM) was 65.3% and 90.9%. For the same compound, the Infected culture response (CEM-V, 6.00 × 10^-7 Molar, 0.6 µM) was 8.3%, the Infected culture response (CEM-V, 6.01 × 10^-8 Molar, 0.0601 µM) was 8.7% and the Conclusion (CEM-Z) was “ACTIVE”. The Infected culture response (CEM-Z, 1.79 × 10^-6 Molar, 1.79 µM) was 47.1% and 26.4%, the Infected culture response (CEM-Z, 5.65 × 10^-5 Molar, 56.5 µM) was 93.1% and the Infected culture response (CEM-Z, 5.66 × 10^-6 Molar, 5.66 µM) was 58.3%. The viability at 17.9 µM (Human immunodeficiency virus 1, CEM-V, read-out: Infected culture response) was 92.2%, the viability at 1.79 µM (Human immunodeficiency virus 1, CEM-V, 1.79 × 10^-6 Molar, read-out: Infected culture response) was 8% and the viability at 0.179 µM (Human immunodeficiency virus 1, CEM-V, 1.79 × 10^-7 Molar, read-out: Infected culture response) was 10.3%. It also gave a viability at 189 µM (Human immunodeficiency virus 1, CEM-V, 1.89 × 10^-4 Molar, read-out: Infected culture response) of 86%, a viability at 18.9 µM (Human immunodeficiency virus 1, CEM-V, 1.89 × 10^-5 Molar, read-out: Infected culture response) of 100% and a viability at 1.89 µM (Human immunodeficiency virus 1, CEM-V, 1.89 × 10^-6 Molar, read-out: Infected culture response) of 18.2%. It also gave a viability at 0.19 µM (Human immunodeficiency virus 1, CEM-V, 1.90 × 10^-7 Molar, read-out: Infected culture response) of 14%, a viability at 5.66 µM (Human immunodeficiency virus 1, CEM-V, 5.66 × 10^-6 Molar, read-out: Infected culture response) of 31.1% and a viability at 0.567 µM (Human immunodeficiency virus 1, CEM-V, 5.67 × 10^-7 Molar, read-out: Infected culture response) of 10.6%. It also gave a viability at 0.0568 µM (Human immunodeficiency virus 1, CEM-V, 5.68 × 10^-8 Molar, read-out: Infected culture response) of 10.1%, a viability at 59.8 µM (Human immunodeficiency virus 1, CEM-V, 5.98 × 10^-5 Molar, read-out: Infected culture response) of 79.7% and a viability at 0.6 µM (Human immunodeficiency virus 1, CEM-V, 6.00 × 10^-7 Molar, read-out: Infected culture response) of 15.5%. It also gave a viability at 0.0601 µM (Human immunodeficiency virus 1, CEM-V, 6.01 × 10^-8 Molar, read-out: Infected culture response) of 14.7%, a viability at 1.79 µM (Human immunodeficiency virus 1, CEM-V, dose printed 1.79 × 10^-6 Molar in the line between 5.66 × 10^-6 and 5.65 × 10^-5, read-out: Infected culture response) of 53.1% and a viability at 17.9 µM (Human immunodeficiency virus 1, CEM-Z, read-out: Infected culture response) of 85.7%. For the same compound, the viability at 56.5 µM (Human immunodeficiency virus 1, CEM-Z, 5.65 × 10^-5 Molar, read-out: Infected culture response) was 92.3%, the viability at 5.66 µM (Human immunodeficiency virus 1, CEM-Z, 5.66 × 10^-6 Molar, read-out: Infected culture response) was 74.5% and the viability at 1.79 µM (Human immunodeficiency virus 1, CEM-Z, dose printed 1.79 × 10^-6 Molar in the line between 5.66 × 10^-6 and 5.65 × 10^-5, read-out: Infected culture response) was 91.3%.
